In PubChem BioAssay (NCI):
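These data come from cells grown in 96-well plates and exposed to compound for 48 hours at five concentrations. At the GI50, growth is halved. TGI denotes the concentration required for complete inhibition of growth.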

Legend:
Test in all cases: growth of human tumour cells (NCI), 48 h
[1] = tested on: RPMI-8226 leukemia
[2] = tested on: K-562 leukemia
[3] = tested on: OVCAR-4 ovarian
[4] = tested on: MOLT-4 leukemia
[5] = tested on: COLO 205 colon
[6] = tested on: HOP-92 NSCLC
[7] = tested on: SNB-75 CNS
[8] = tested on: CCRF-CEM leukemia
[9] = tested on: SK-MEL-5 melanoma
[10] = tested on: IGROV1 ovarian

Structure (SMILES)	GI50 [1] [µM]	TGI [1] [µM]	GI50 [2] [µM]	TGI [2] [µM]	GI50 [3] [µM]	TGI [3] [µM]	GI50 [4] [µM]	TGI [4] [µM]	GI50 [5] [µM]	TGI [5] [µM]	GI50 [6] [µM]	TGI [6] [µM]	GI50 [7] [µM]	TGI [7] [µM]	GI50 [8] [µM]	TGI [8] [µM]	GI50 [9] [µM]	TGI [9] [µM]	GI50 [10] [µM]	TGI [10] [µM]
NCC(=O)CCC(=O)O	> 100	> 100	> 100	> 100	> 100	> 100	> 100	> 100	> 100	> 100	> 100	> 100	> 100	> 100	> 87.2	> 100	> 100	> 100	> 100	> 100
N#Cc1nc(Nc2ccc([N+](=O)[O-])cc2)sc1N	–	> 59.2	–	> 100	–	> 100	–	> 82	–	> 100	–	75	–	> 100	–	> 100	–	12.7	–	> 100
CCCCc1nc2cc(/C=C/C(=O)NO)ccc2n1CCN(CC)CC	0.176	> 100	0.282	> 100	0.345	> 54.2	0.384	> 88.8	0.138	0.298	0.0821	0.456	0.227	25.4	0.317	> 100	0.146	0.339	0.733	5.67
C=CCNc1cccc2c1C(=O)c1ccccc1C2(O)CC=C (stereo not given)	17.4	44.6	31.1	95.2	26.2	> 100	41.8	> 100	16.2	36.1	27.4	55.4	17	45.7	22.6	52	16	30.2	33.3	> 100
O=C1C(=O)c2c(nc3ncccn23)-c2ccccc21	0.198	0.602	0.219	2.75	0.161	0.297	0.257	0.711	2.13	4.53	0.271	1	0.378	0.793	0.328	3.45	0.167	0.304	0.245	0.566
COP1(=S)OCC2CCC[C@@H]2O1 (stereo not given in full)	–	> 100	–	> 100	–	> 100	–	> 100	–	> 100	–	> 100	–	> 100	–	> 100	–	> 100	–	> 100
CC(C)(C)c1nnc2n(c1=O)N=CC(c1ccc(Br)cc1)S2 (stereo not given)	25.6	> 100	26.5	> 100	33.9	> 100	31.5	> 100	39.2	> 100	40.9	> 100	21.5	96.6	31.3	> 100	18.6	38.3	26.5	92.8
Cc1ccc(N(C(=O)CC(=O)N2N=C(c3ccccc3)C(N=Nc3ccc([N+](=O)[O-])cc3)C2=O)C(=O)c2ccc(Cl)cc2)cc1 (stereo not given)	–	> 59.1	–	> 71.3	–	> 100	–	> 100	–	10.4	–	56.5	–	39.1	–	> 30.9	–	84.8	–	45.9
